In the supplement of paper PMC11061612:

Key:
[1] = system: A2780 (Ovarian Carcinoma); experiment: Bliss excess, mean over the matrix (fraction); higher = more synergy
In short: (§1)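 Cell lines in DMEM/F12 or RPMI with 10% FBS were plated in 1536-well plates, held 24 hours at 37°C, 5% CO2, then given two-drug dose matrices for 72 hours (DMSO typically 0.2%). Viability was read by CellTiter-Glo 2.0 luminescence and scaled as inhibition from 0 (vehicle wells) to 1 (blank wells). Combination Emax is the second-highest inhibition in the matrix; Bliss excess is observed combination effect minus expected EA + EB − EA·EB, EA and EB being single-agent effects.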

[2] = system: LS-411N (Colorectal Carcinoma); experiment: as above
In short: as §1

AU565 (Breast Carcinoma) = experiment: as above
In short: as §1

[3] = system: KYSE-140 (Esophageal Squamous Cell Carcinoma); experiment: as above
In short: as §1

[4] = system: KYSE-220 (Esophageal Squamous Cell Carcinoma); experiment: as above
In short: as §1

[5] = system: huH-1 (Hepatocellular Carcinoma); experiment: combination Emax (second highest fraction inhibited in the dose matrix, 72 h); higher = more inhibition; extreme values may be limits of the assay
In short: as §1

[6] = system: NCI-H441 (Lung Adenocarcinoma); experiment: as above
In short: as §1

[7] = system: CGTH-W-1 (Thyroid Gland Carcinoma); experiment: as above
In short: as §1

HCC70 (Breast Carcinoma) = experiment: as above
In short: as §1

[8] = system: 22RV1 (Prostate Carcinoma); experiment: as above
In short: as §1

A101D (Melanoma) = experiment: as above
In short: as §1

[9] = system: SW620 (Colorectal Carcinoma); experiment: as above
In short: as §1

[10] = system: JVM-2 (B-Cell Non-Hodgkin's Lymphoma); experiment: as above
In short: as §1

IM-9 (Non-Cancerous) = experiment: as above
In short: as §1

A204 (Rhabdomyosarcoma) = experiment: as above
In short: as §1

COLO-792 (Melanoma) = experiment: as above
In short: as §1

[11] = system: CA46 (Burkitt's Lymphoma); experiment: as above
In short: as §1

[12] = system: NCI-H1651 (Lung Adenocarcinoma); experiment: as above
In short: as §1

NB13 (Neuroblastoma) = experiment: as above
In short: as §1

[13] = system: HT55 (Colorectal Carcinoma); experiment: as above
In short: as §1
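Wherever Bliss excess, mean over the matrix is given: after 72 h of two-drug dosing.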

Row | SMILES | Bliss excess [1] | Bliss excess [2] | Bliss excess (AU565 (Breast Carcinoma)) | Bliss excess [3] | Bliss excess [4] | combination Emax [5] | combination Emax [6] | combination Emax [7] | combination Emax (HCC70 (Breast Carcinoma)) | combination Emax [8] | combination Emax (A101D (Melanoma)) | combination Emax [9] | combination Emax [10] | combination Emax (IM-9 (Non-Cancerous)) | combination Emax (A204 (Rhabdomyosarcoma)) | combination Emax (COLO-792 (Melanoma)) | combination Emax [11] | combination Emax [12] | combination Emax (NB13 (Neuroblastoma)) | combination Emax [13]
1 | COc1cccc(OCCCN)c1-c1cc(Nc2cnc(C#N)cn2)n[nH]1 [Prexasertib] + O=C(c1cc(Cc2n[nH]c(=O)c3ccccc23)ccc1F)N1CCN(C(=O)C2CC2)CC1 [Olaparib] (first compound max 1 µM, 7x7, partner max 10 µM) | -0.0298 | -0.271 | -0.0097 | -0.152 | -0.0238 | 0.778 | 0.574 | 0.714 | 0.939 | 0.516 | 0.788 | 0.711 | 0.946 | 1 | 0.584 | 0.322 | 0.464 | 0.797 | 0.881 | 0.65
2 | COc1nnc2ccc(N3CCC(c4ccc(OCCN5CCN(C)C(=O)[C@H]5C)cc4)CC3)nn12 [AZD5153] + Cn1cnc2c(F)c(Nc3ccc(Br)cc3Cl)c(C(=O)NOCCO)cc21 [Selumetinib] (first compound max 1 µM, 7x7, partner max 10 µM) | -0.0118 | 0.0602 | 0.0278 | -0.028 | 0.123 | 0.438 | 0.453 | 0.356 | 0.584 | 0.555 | 0.872 | 0.76 | 0.702 | 0.952 | 0.484 | 0.882 | 0.633 | 0.138 | 0.565 | 0.857
3 | COc1cccc(OCCCN)c1-c1cc(Nc2cnc(C#N)cn2)n[nH]1 [Prexasertib] + Cc1cc2ncnn2cc1Nc1ncc2c(n1)n(C1CCOCC1)c(=O)n2C [AZD7648] (first compound max 1 µM, 7x7, partner max 10 µM) | 0.0097 | -0.0082 | 0.0086 | -0.0066 | -0.0308 | 0.762 | 0.505 | 0.725 | 0.922 | 0.575 | 0.762 | 0.698 | 0.956 | 1 | 0.528 | 0.317 | 0.653 | 0.787 | 0.919 | 0.65
4 | NC1(C(=O)N[C@@H](CCO)c2ccc(Cl)cc2)CCN(c2ncnc3[nH]ccc23)CC1 [Capivasertib] + CC(C)n1c(=O)n(C)c2cnc3cc(F)c(-c4ccc(OCCCN5CCCCC5)nc4)cc3c21 [AZD1390] (first compound max 10 µM, 7x7, partner max 0.3 µM) | -0.0885 | -0.0267 | -0.025 | -0.033 | -0.0659 | 0.299 | 0.252 | 0.357 | 0.707 | 0.527 | 0.46 | 0.227 | 0.707 | 0.577 | 0.382 | 0.444 | 0.23 | 0.149 | 0.254 | 0.381
5 | COc1nnc2ccc(N3CCC(c4ccc(OCCN5CCN(C)C(=O)[C@H]5C)cc4)CC3)nn12 [AZD5153] + CC1(C)CCC(CN2CCN(c3ccc(C(=O)NS(=O)(=O)c4ccc(NCC5CCOCC5)c([N+](=O)[O-])c4)c(Oc4cnc5[nH]ccc5c4)c3)CC2)=C(c2ccc(Cl)cc2)C1 [Venetoclax] (first compound max 1 µM, 7x7, partner max 1 µM) | -0.0689 | -0.0573 | 0.0002 | -0.0597 | -0.015 | 0.401 | 0.381 | 0.212 | 0.309 | 0.486 | 0.67 | 0.431 | 0.739 | 0.859 | 0.416 | 0.583 | 0.658 | 0.257 | 0.474 | 0.513
6 | CC1(C)CCC(CN2CCN(c3ccc(C(=O)NS(=O)(=O)c4ccc(NCC5CCOCC5)c([N+](=O)[O-])c4)c(Oc4cnc5[nH]ccc5c4)c3)CC2)=C(c2ccc(Cl)cc2)C1 [Venetoclax] + COc1cc(Nc2ncc3c(n2)-c2ccc(Cl)cc2C(c2c(F)cccc2OC)=NC3)ccc1C(=O)O [Alisertib] (first compound max 1 µM, 7x7, partner max 10 µM) | -0.0602 | -0.0329 | 0.106 | 0.0471 | -0.0305 | 0.257 | 0.343 | 0.598 | 0.412 | 0.329 | 0.632 | 0.387 | 0.892 | 1 | 0.431 | 0.405 | 0.436 | 0.269 | 0.932 | 0.347
7 | Cc1c2c(nn1C)CSCc1cc(n(C)n1)CSc1cc(c3ccccc3c1)OCCCc1c(C(=O)O)n(C)c3c-2c(Cl)ccc13 [AZD5991] + CCN(CCO)CCCOc1ccc2c(Nc3cc(CC(=O)Nc4cccc(F)c4)[nH]n3)ncnc2c1 [AZD2811] (first compound max 1 µM, 7x7, partner max 1 µM) | 0.0561 | 0.0206 | 0.0367 | 0.0169 | 0.0088 | 0.387 | 0.31 | 0.521 | 0.935 | 0.399 | 0.998 | 0.512 | 0.772 | 1 | 0.688 | 0.977 | 0.193 | 0.356 | 0.615 | 0.553
8 | CC1(C)CCC(CN2CCN(c3ccc(C(=O)NS(=O)(=O)c4ccc(NCC5CCOCC5)c([N+](=O)[O-])c4)c(Oc4cnc5[nH]ccc5c4)c3)CC2)=C(c2ccc(Cl)cc2)C1 [Venetoclax] + C=CCn1c(=O)c2cnc(Nc3ccc(N4CCN(C)CC4)cc3)nc2n1-c1cccc(C(C)(C)O)n1 [AZD1775] (first compound max 1 µM, partner max 1 µM) | 0.0477 | -0.0856 | 0.0756 | -0.0037 | -0.0321 | 0.501 | 0.489 | 0.377 | 0.805 | 0.513 | 0.736 | 0.51 | 0.97 | 0.992 | 0.325 | 0.399 | 0.738 | 0.589 | 0.928 | 0.664
9 | NC1(C(=O)N[C@@H](CCO)c2ccc(Cl)cc2)CCN(c2ncnc3[nH]ccc23)CC1 [Capivasertib] + CCN(CCO)CCCOc1ccc2c(Nc3cc(CC(=O)Nc4cccc(F)c4)[nH]n3)ncnc2c1 [AZD2811] (first compound max 10 µM, 7x7, partner max 1 µM) | 0.05 | -0.0556 | -0.0229 | -0.0096 | -0.0154 | 0.384 | 0.317 | 0.354 | 0.745 | 0.544 | 0.552 | 0.328 | 0.755 | 0.933 | 0.489 | 0.661 | 0.362 | 0.203 | 0.534 | 0.576
10 | C=CCn1c(=O)c2cnc(Nc3ccc(N4CCN(C)CC4)cc3)nc2n1-c1cccc(C(C)(C)O)n1 [AZD1775] + O=C(c1cc(Cc2n[nH]c(=O)c3ccccc23)ccc1F)N1CCN(C(=O)C2CC2)CC1 [Olaparib] (first compound max 1 µM, partner max 10 µM) | -0.0256 | -0.0608 | -0.0195 | -0.0418 | -0.0428 | 0.634 | 0.472 | 0.193 | 0.56 | 0.323 | 0.604 | 0.603 | 0.888 | 0.986 | 0.24 | 0.284 | 0.53 | 0.736 | 0.935 | 0.454
11 | COc1cccc(OCCCN)c1-c1cc(Nc2cnc(C#N)cn2)n[nH]1 [Prexasertib] + CCc1c2c(nc3ccc(O)cc13)-c1cc3c(c(=O)n1C2)COC(=O)[C@]3(O)CC [SN-38] (first compound max 1 µM, 7x7, partner max 0.3 µM) | -0.0528 | 0.0331 | -0.0213 | -0.0076 | -0.0153 | 0.767 | 0.712 | 0.832 | 0.944 | 0.727 | 0.899 | 0.975 | 0.985 | 1 | 0.678 | 0.559 | 0.837 | 0.879 | 0.962 | 0.863
12 | CN(C)CCCOc1ccc(-c2ccc3ncc4c(c3c2)n(C2CCOCC2)c(=O)n4C)cn1 [AZD0156] + C[C@@H]1COCCN1C2=NC(=NC(=C2)C3(CC3)[S@](=N)(=O)C)C4=C5C=CNC5=NC=C4 [AZD6738] (first compound max 1 µM, 7x7, partner max 10 µM) | -0.0114 | -0.0145 | 0.0094 | 0.0481 | 0.0134 | 0.821 | 0.435 | 0.35 | 0.829 | 0.524 | 0.703 | 0.566 | 0.849 | 0.976 | 0.411 | 0.273 | 0.746 | 0.649 | 0.906 | 0.514
13 | Cn1cnc2c(F)c(Nc3ccc(Br)cc3Cl)c(C(=O)NOCCO)cc21 [Selumetinib] + CCN(CCO)CCCOc1ccc2c(Nc3cc(CC(=O)Nc4cccc(F)c4)[nH]n3)ncnc2c1 [AZD2811] (first compound max 10 µM, 7x7, partner max 1 µM) | 0.0251 | -0.0115 | -0.0167 | -0.0554 | 0.036 | 0.307 | 0.304 | 0.125 | 0.603 | 0.383 | 0.596 | 0.863 | 0.633 | 0.995 | 0.286 | 0.51 | 0.312 | 0.209 | 0.367 | 0.741
